Assay results reported in US8936809B2, “Method for treating prostate diseases based on local delivery of active substances” (Lidds AB, priority 2005, dated 2015).
Several values for one entry are separate records, joined by “and”; a condition that tells them apart may be missing. Equal entries are not always repeated. Where two headings read alike, the source gives them in different places.

Experiments:
in vivo = settings: male, Labrador, dog, iv, 25 mg
Protocol: First, four male dogs (H1-H4) (Labrador, approx. 1 year of age and weight 30 kg) were given 2-hydroxy-flutamide (25 mg) by single bolus doses intravenously during 30 seconds. The intravenous solution base was sterile saline […], sterile polyethylene glycol 400 46% and ethanol (95%) 6%. Blood samples of 1.0 ml were taken from the Cephalic vein at 5, 10, 15, 30, 60, 90, 120, 240, 360, and 600 minutes. The blood samples were immediately centrifuged at 3000 rpm and the plasma samples were frozen at −80° C. until analysis.
Quantification of 2-hydroxy-flutamide in plasma and tissue samples was done by HPLC-MS. HPLC was performed with a Surveyor HPLC system equipped with a CTC Pal autosampler. The analytical column was a Zorbax Eclipse XDB-18 (2.1 mm×50 mm, particle size 5 μm) connected to a guard column. The eluent consisted of solvent A (aqueous formic acid 0.1%) and B (acetonitrile), a linear gradient from 25 to 90% of solvent B in 5 minutes was applied. The proportion of solvent B was then lowered to 25% in one minute and was allowed to equilibrate at this level for two minutes prior to the next injection. The volumetric flow-rate was 200 μL/min and the injection volume was 20 μL. The HPLC column outlet was coupled to a TSQ Quantum Ultra tandem triple quadrupole mass spectrometer (ThermoFinnigan, San José, Calif., USA). The transition of m/z 291 [M-H]^−→205 was used for 2-hydroxy-flutamide and m/z 316 [M-H]^−→273 was used for nilutamide (internal standard). The limit of quantification was 0.50 ng/ml in dog plasma. Calibration samples were prepared by spiking blank plasma samples with 100 μL of solutions of 2-hydroxy-flutamide at different concentrations. […] The accuracies of the analytical runs were calculated as 100*(mean determined concentration in QC sample/spiked concentration) % and the intra-run precisions were calculated as the relative standard deviation (RSD %) of the determined concentrations at each QC level. […]

[1] = Plasma pharmacokinetics and tissue level after controlled release implant into bulbourethral gland of male sheep (Example 2); assay type: in vivo
Protocol: (§1) The major purpose of the present animal study was to examine the pharmacokinetics, efficacy and safety of the novel local drug delivery system with 2-hydroxyflutamide, a selective antagonist to the androgen receptor (AR). A ceramic based drug delivery product was administered into an androgen dependent tissue (the bulbourethral gland) in male sheep. In total 11 male sheep were divided into two separate groups. One group was given 2-hydroxyflutamide by the local implant delivery system as a single administration into the bulbourethral gland and was monitored during 2 months. Each sheep in this treatment group received the prostate implant by a single dose of 250 mg. The other group only received ceramic formulation without any active drug substance.
The implant drug delivery system was inserted locally, via rectum, into the androgen dependent tissue (bulbourethral gland) through sterile needles during rectal ultrasound guidance. The animals were during anaesthesia throughout the insertion procedure. The sterile ceramic based implant had two major components: calcium sulphate (CaSO4-0.5H2O) and 2-hydroxyflutamide. The composition of the formulation was 250 mg 2-hydroxyflutamide+2.25 g calcium sulphate di-hydrate+5.0 g calcium sulphate hemi-hydrate and it was mixed with solution: 3.5 ml of water solution (with 1% acetic acid and 1% methyl cellulose). […] The amount injected into each lobe of the androgen sensitive bulbourethral gland was about 2.0-3.0 ml.
Quantification of 2-hydroxy-flutamide in plasma samples was done by HPLC-MS. HPLC was performed with a Surveyor HPLC system equipped with a CTC Pal autosampler. The analytical column was a Zorbax Eclipse XDB-18 (2.1 mm×50 mm, particle size 5 μm) connected to a guard column. The calibration curves were constructed by linear regression of the peak area ratio of 2-hydroxy-flutamide and internal standard as a function of 2-hydroxy-flutamide concentrations. The method performance was studied using quality control (QC) samples, which were prepared by spiking blank plasma with 2-hydroxy-flutamide.
Sheep plasma (unknown, QC or calibration sample) at a volume of 100 μL was mixed with 100 μL of internal standard solution (nilutamide at 0.025 μg/mL) and 250 μL of acetonitrile. A subsequent vortex mix was performed for 20 seconds followed by a centrifugation for 10 minutes. […] of the supernatant was transferred to a clean test tube and evaporated to dryness at 50° C. in a gentle stream of nitrogen. The residue was reconstituted in 100 μL aqueous formic acid (0.1%) and transferred to a vial for LC-MS/MS analysis.
The formulation was successfully administered in 11 male sheep. Based on the plasma exposure profile the pharmacokinetic variables were calculated with standard methods (Table 4).

[2] = system: androgen dependent tissue (bulbourethral gland); test: Local anti-androgen effect and side effects after implant into bulbourethral gland of male sheep (Example 2); assay type: in vivo
Protocol: as §1
The implant drug delivery system was inserted locally, via rectum, into the androgen dependent tissue (bulbourethral gland) through sterile needles during rectal ultrasound guidance. The animals were during anaesthesia throughout the insertion procedure. The sterile ceramic based implant had two major components: calcium sulphate (CaSO4-0.5H2O) and 2-hydroxyflutamide. The composition of the formulation was 250 mg 2-hydroxyflutamide+2.25 g calcium sulphate di-hydrate+5.0 g calcium sulphate hemi-hydrate and it was mixed with solution: 3.5 ml of water solution (with 1% acetic acid and 1% methyl cellulose). […]

[3] = male sheep plasma, 250 mg implant into bulbourethral gland, individual animals

CC(C)(O)C(=O)Nc1ccc([N+](=O)[O-])c(C(F)(F)F)c1 [2-hydroxy-flutamide]
Cmax (in vivo; Cmax): 835 ng/mL
half-life (in vivo; elimination half-life): 1.75 ± 0.2 h
half-life (in vivo; t1/2): 1.9 h
AUC [1, 3]: 3725 ng·h/mL and 3390 ng·h/mL and 3755 ng·h/mL and 1855 ng·h/mL and 4948 ng·h/mL and 4436 ng·h/mL and 4287 ng·h/mL
Cmax [1, 3]: 84 ng/mL and 35 ng/mL and 19.8 ng/mL and 16.3 ng/mL and 34 ng/mL and 31 ng/mL and 26 ng/mL
t½ [1, 3]: 253 h and 117 h and 67 h and 168 h and 119 h and 140 h and 159 h
Tmax ([1]; male, sheep, plasma, 250 mg, male sheep, 250 mg implant into bulbourethral gland, Mean of seven sheep): 9 h
AUC ([1]; male, sheep, plasma, 250 mg, male sheep, 250 mg implant into bulbourethral gland, Mean of seven sheep, read-out: AUC): 3770 ng·h/mL
Cmax ([1]; male, sheep, plasma, 250 mg, male sheep, 250 mg implant into bulbourethral gland, Mean of seven sheep, read-out: Cmax): 42 ng/mL
half-life ([1]; male, sheep, plasma, 250 mg, male sheep, 250 mg implant into bulbourethral gland, Mean of seven sheep, read-out: t½ (converted)): 146 h
half-life ([1]; male, sheep, plasma, other: local implant into the bulbourethral gland via rectum, 250 mg, male sheep, 250 mg controlled release implant, read-out: elimination half-life (converted)): ~146 h
androgen dependent side effect ([2]; 250 mg implant into bulbourethral gland): no androgen dependent side effect observed
macroscopic effect on the androgen dependent tissue (bulbourethral gland) ([2]; single intra-gland injection of 250 mg implant): decreased volume and weight
